Experimental data published in patent US10537541B2, “Treatment of focal segmental glomerular sclerosis (FSGS) using therapeutically effective oral doses of 10-nitro-9(E)-octadec-9-enoic acid” (Complexa, Inc., priority 2015, dated 2020).

What was measured:
[1] = test system: deoxycorticosterone acetate (DOCA)/salt-induced model of FSGS; test: DOCA/salt-induced mouse model of FSGS: renoprotection, body weight, blood pressure, organ/body weight ratios; assay type: in vivo, mice (129/sv strain); settings: DOCA/salt mice
Experimental: 10-nitro-9(E)-octadec-9-enoic acid, given orally after onset of renal injury, was evaluated for efficacy in a model for Focal Segmental Glomerular Sclerosis (FSGS) in humans. […] Mice were uni-nephrectomized and, after two weeks, implanted subcutaneously with DOCA (50 mg, 21-day release) or placebo sustained release pellets, with pellet replacement 3 weeks later. All groups, except the sham control group, also received 1% NaCl in tap water. 10-nitro-9(E)-octadec-9-enoic acid (daily oral gavage, 2.5 or 12.5 mg/kg) or enalapril (20 mg/kg/day in drinking water) treatments began 2 weeks after the first DOCA implantation and continued for 4 weeks. Enalapril was included for comparison because it is used as standard of care for FSGS and this is a positive control for the model.
(§1) Induction of model: Male mice (129/sv strain) were purchased from Taconic Labs. The animals were uninephrectomized (Unx) at 6 weeks of age by the vendor and shipped one week after surgery. At 2 weeks post Unx, a DOCA or placebo pellet (21-day release pellets, 50 mg/pellet, Innovative Research of America, Sarasota, Fla.) was implanted s.c. All mice were then placed on a semisynthetic diet which contained a moderate fat content and a low phytoestrogen/anti-oxidant level, which approximates a normal human diet (4). A second DOCA or placebo pellet was implanted three weeks later.
(§2) Treatment: Mice were treated with placebo, 10-nitro-9(E)-octadec-9-enoic acid at a dose of 2.5 and 12.5 mg/kg, or enalapril (standard of care) for 4 weeks by oral gavage starting 2 weeks after the first DOCA implantation. One percent NaCl in tap water was given to each group except the sham control group. Body weight was measured weekly, and doses were readjusted based on the current body weight. Urine and blood samples were collected prior to treatment and at week 2 and 4 of treatment. Mice were terminated at week 4. Data is presented as the mean+SEM for the number of animals listed in each group.

[2] = test system: deoxycorticosterone acetate (DOCA)/salt-induced model of FSGS; test: DOCA salt study: histological assessment of kidney; assay type: in vivo, mice (129/sv strain); settings: DOCA/salt mice, 4 weeks
Experimental: as §1, §2
Histological Assessment: Formalin fixed, paraffin embedded kidneys were sectioned at 3 microns and stained with hematoxylin and eosin (H&E), periodic acid-Schiff (PAS) and Masson's Trichrome for histological analysis. Slides were blindly evaluated by an experienced pathology investigator. Glomerular and tubular pathology, interstitial inflammation and interstitial fibrosis were semi-quantitatively scored on a scale of 0-4 as follows: 0=normal; 1=mild; 2=moderate; 3=marked; 4=severe.
Glomerular hypertrophy was evaluated by measuring glomerular area and expressed as a mean value of 50 glomeruli per kidney. Glomerular hypertrophy is an important marker for diabetic and hypertensive-mediated chronic kidney disease. […] This finding is consistent with unchanged gene expression profile for podocyte markers (Table 2), and seems reasonable given that the disease was relatively modest.

obese male subjects = test: Multiple ascending dose study in obese males: safety and tolerability; assay type: in vivo, human; settings: for GI adverse events, number (percentage) of subjects / General Disorders adverse events, number (percentage) of subjects / Muscle and CT disorders adverse events, number (percentage) of subjects / Nervous System adverse events, number (percentage) of subjects / Skin and SQ disorders adverse events, number (percentage) of subjects: n = 10
Description: The primary endpoints of this study included safety and tolerability, pharmacokinetics, and biomarkers. The safety and tolerability included physical examinations, adverse event (AE) reporting, vital signs (blood pressure, heart rate, respiratory rate), clinical laboratory values (hematology, biochemistry, and urinalysis) including serum magnesium and creatine phosphokinase (CPK), 12-lead electrocardiograms (ECGs) for safety assessments and QTcF measured on ECGs extracted from cardiac Holter monitoring. The pharmacokinetic measurements included maximum observed plasma drug concentration (Cmax), time to maximum plasma drug concentration (Tmax), terminal phase half-life (t½), area under the plasma drug concentration versus time curve (AUC0-last, AUC0-∞), clearance (CL/F), volume of distribution (Vd/F) and terminal elimination rate constant (λz).
This was a single-center, randomized, double-blind, placebo-controlled study of sequential multiple ascending doses of oral CXA-10 in obese male subjects. Eligible subjects included obese males age 19 to 57 years and BMI 27.0 to 39.5 kg/m^2. CXA-10 and placebo were provided as solutions in hard shell capsules. Three (3) cohorts of subjects were dosed once daily with CXA-10 for 14 days. The doses administered in this study were 25, 150 and 450 mg. Subjects enrolled in the highest dose level (450 mg) were administered 600 mg on day 1 then 450 mg for 13 days. This cohort (cohort 3) was given the option to receive an additional 450 mg dose on day 15 with a high fat (50%) breakfast.
Each cohort of subjects was randomized to receive CXA-10 (10 subjects) or placebo (4 or 5 subjects). Safety, pharmacokinetic (PK) and pharmacodynamic (PD) assessments were evaluated throughout the study. The last study visit occurred on Day 28. All subjects remained in the unit during the treatment period and were discharged approximately 24 hours after the last dose was administered. Food restrictions were incorporated to minimize variability in biomarker evaluation and body weight.
Subjects remained at the unit until discharge on Day 15 after assessments were completed and reviewed. […] They remained in the unit until Day 16 (24 h after last dose on Day 15) before being discharged from the unit. The additional procedures on Day 15 and Day 16 were optional for subjects in cohort 3.
Safety and tolerability was evaluated throughout the study. Continuous Holter monitoring was performed on Days −1 and on Day 14 in all three cohorts. Continuous Holter monitoring could also be performed at highest dose cohort on an additional day between Days 2 and 4. The decision to conduct Holter monitoring and the actual day of the additional monitoring was determined based on emerging data.

[3] = test system: adriamycin-induced nephropathy model; settings: continually infused at disease onset; cited from earlier work
[4] = Cohort 1, 25 mg once daily 14 days
[5] = Cohort 2, 150 mg once daily 14 days
[6] = Cohort 3, 450 mg once daily (600 mg on day 1)
[7] = obese males, 25-450 mg once daily

**Q.** For `CCCCCCCC/C(=C\CCCCCCCC(=O)O)[N+](=O)[O-]` [CXA-10, 10-nitro-9(E)-octadec-9-enoic acid], which “renal protector (renoprotective effect)” value ([1]; 2.5 mg/kg/day oral gavage) is on record?
**A.** The value was “highly effective as a renal protector”.

**Q.** And the body weight gains ([1]; 10-nitro-9(E)-octadec-9-enoic acid 2.5 or 12.5 mg/kg p.o. or enalapril 20 mg/kg/d, 4 weeks)?
**A.** The body weight gains was “unaffected”.

**Q.** What about the “kidney/body weight and heart/body ratios” value ([1]; low dose 2.5 mg/kg p.o. QD, 4 weeks) of the same compound?
**A.** Its value is “reduced”.

**Q.** What about the “glomerulosclerosis: average scores and percent of glomerular damage (sclerosis)” value ([2]; both doses (2.5 and 12.5 mg/kg p.o. QD)) of the same compound?
**A.** The value was “significantly reduced”.

**Q.** And the “glomerular hypertrophy (glomerular area, mean of 50 glomeruli per kidney)” value ([2]; high dose 12.5 mg/kg p.o. QD)?
**A.** Its value is “did not have an effect”.

**Q.** What about the tubulointerstitial lesions ([2]; high dose 12.5 mg/kg p.o. QD) of the same compound?
**A.** The tubulointerstitial lesions was “only slightly”.

**Q.** What about the “glomerular hypertrophy (glomerular area, mean of 50 glomeruli per kidney)” value ([2]; low dose 2.5 mg/kg p.o. QD) of the same compound?
**A.** Its value is “reduced”.

**Q.** What about the tubulointerstitial lesions ([2]; low dose 2.5 mg/kg p.o. QD) of the same compound?
**A.** Its tubulointerstitial lesions is “improved”.

**Q.** And the “HBG, HCT and RBC concentration during treatment compared to placebo treated subjects” value (obese male subjects; 450 mg)?
**A.** Its value is “slight decrease”.

**Q.** And the “GI related AEs: subjects with nausea” value (obese male subjects; Cohort 1 (25 mg))?
**A.** The value was 1 subject had nausea subjects.

**Q.** What about the “GI adverse events, number (percentage) of subjects” value (obese male subjects; [4]) of the same compound?
**A.** Its value is 2 (20%).

**Q.** And the “General Disorders adverse events, number (percentage) of subjects” value (obese male subjects; [4])?
**A.** The value was 1 (10%).

**Q.** What about the “Muscle and CT disorders adverse events, number (percentage) of subjects” value (obese male subjects; [4]) of the same compound?
**A.** Its value is 2 (20%).

**Q.** And the “Nervous System adverse events, number (percentage) of subjects” value (obese male subjects; [4])?
**A.** Its value is 0 (0%).

**Q.** And the “Skin and SQ disorders adverse events, number (percentage) of subjects” value (obese male subjects; [4])?
**A.** The value was 2 (20%).

**Q.** What about the “GI related AEs: subjects with diarrhea” value (obese male subjects; Cohort 2 (150 mg)) of the same compound?
**A.** Its value is 5 subjects had diarrhea: 1 subject had diarrhea ~2 hr.

**Q.** What about the “GI adverse events, number (percentage) of subjects” value (obese male subjects; [5]) of the same compound?
**A.** Its value is 5 (50%).

**Q.** And the “General Disorders adverse events, number (percentage) of subjects” value (obese male subjects; [5])?
**A.** The value was 0 (0%).

**Q.** What about the “Muscle and CT disorders adverse events, number (percentage) of subjects” value (obese male subjects; [5]) of the same compound?
**A.** The value was 0 (0%).

**Q.** What about the “Nervous System adverse events, number (percentage) of subjects” value (obese male subjects; [5]) of the same compound?
**A.** The value was 1 (10%).

**Q.** What about the “Skin and SQ disorders adverse events, number (percentage) of subjects” value (obese male subjects; [5]) of the same compound?
**A.** The value was 0 (0%).

**Q.** What about the “GI related AEs: subjects with diarrhea” value (obese male subjects; Cohort 3 (450 mg w food)) of the same compound?
**A.** The value was 3 subjects.

**Q.** And the “GI related AEs: subjects with nausea” value (obese male subjects; Cohort 3 (450 mg w food))?
**A.** Its value is 1 subjects.

**Q.** What about the “GI related AEs: subjects with diarrhea” value (obese male subjects; Cohort 3 (450 mg)) of the same compound?
**A.** Its value is 9 subjects.

**Q.** What about the “GI related AEs: subjects with nausea” value (obese male subjects; Cohort 3 (450 mg)) of the same compound?
**A.** Its value is 4 subjects.

**Q.** What about the “GI adverse events, number (percentage) of subjects” value (obese male subjects; [6]) of the same compound?
**A.** The value was 9 (90%).

**Q.** What about the “General Disorders adverse events, number (percentage) of subjects” value (obese male subjects; [6]) of the same compound?
**A.** Its value is 3 (30%).

**Q.** What about the “Muscle and CT disorders adverse events, number (percentage) of subjects” value (obese male subjects; [6]) of the same compound?
**A.** Its value is 2 (20%).

**Q.** And the “Nervous System adverse events, number (percentage) of subjects” value (obese male subjects; [6])?
**A.** Its value is 4 (40%).

**Q.** What about the “Skin and SQ disorders adverse events, number (percentage) of subjects” value (obese male subjects; [6]) of the same compound?
**A.** The value was 1 (10%).

**Q.** What about the “CPK (muscle enzyme) or magnesium serum levels” value (obese male subjects; [7]) of the same compound?
**A.** The value was “no abnormalities”.

**Q.** And the “QTc interval (routine ECG after dosing for 15 days; ECG extraction from continuous 24-hour Holter monitoring)” value (obese male subjects; [7])?
**A.** The value was “no prolongation of QTc interval”.

**Q.** What about the “clinical laboratory, vital signs or ECG evaluations” value (obese male subjects; [7]) of the same compound?
**A.** The value was “no clinically significant findings”.

**Q.** What about the “time to resolution of diarrhea” value (obese male subjects; obese males, oral once daily) of the same compound?
**A.** Its value is ≤ 4 h.

**Q.** What about the “intensity of diarrhea (grade)” value (obese male subjects; obese males, did not worsen with increasing dose) of the same compound?
**A.** The value was “grade 1 or 2”.

**Q.** And the podocyte number [3]?
**A.** Its podocyte number is “increase in podocyte number”.
